Test results reported in patent US20060069132A1, “Azolecarboxamide herbicides” (priority 2004, published 2006).

Tests used:
Surinam grass = assay: Test C pre-/postemergence herbicide test; type: in vivo, Urochloa decumbens
Method in brief: (§1)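 Visual injury scores run from 0 (no effect) to 100 (complete control), assessed relative to untreated controls 12 to 14 days after treatment in the greenhouse. Chemicals were formulated in a non-phytotoxic solvent mixture with surfactant and applied to soil after planting or to emerged plants at the 1- to 4-leaf stage.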

barnyardgrass = assay: Test C flooded paddy test; type: in vivo, Echinochloa crus-galli; conditions: for Plant response rating, Barnyardgrass: 500 g ai/ha, visual rating after 12 to 14 days
Method in brief: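 Ratings (0 = no effect, 100 = complete control) come from visual comparison with untreated plants after 12 to 14 days in the greenhouse. Treatment was postemergence at the 1- to 4-leaf stage (2–18 cm), or at the 2-leaf stage for the flooded paddy barnyardgrass.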

woolly cupgrass = assay: Test C pre-/postemergence herbicide test; type: in vivo, Eriochloa villosa
Method in brief: as §1

goosegrass = assay: Test C pre-/postemergence herbicide test; type: in vivo, Eleusine indica
Method in brief: as §1

yellow nutsedge = assay: Test C pre-/postemergence herbicide test; type: in vivo, Cyperus esculentus
Method in brief: as §1

morningglory = assay: Test C pre-/postemergence herbicide test; type: in vivo, Ipomoea coccinea; design: key to Plant response rating, Morningglory: 0 = no effect, 100 = complete control
Method in brief: as §1

lambsquarters = assay: Test C pre-/postemergence herbicide test; type: in vivo, Chenopodium album
Method in brief: as §1

kochia = assay: Test C pre-/postemergence herbicide test; type: in vivo, Kochia scoparia
Method in brief: as §1

soybean = assay: Test C pre-/postemergence herbicide test; type: in vivo, Glycine max
Method in brief: as §1

pigweed = assay: Test C pre-/postemergence herbicide test; type: in vivo, Amaranthus retroflexus
Method in brief: as §1

corn = assay: Test C pre-/postemergence herbicide test; type: in vivo, Zea mays
Method in brief: as §1

[1] = tested on: smallflower umbrella sedge; assay: Test C flooded paddy test; type: in vivo, Cyperus difformis; conditions: for Plant response rating, Sedge, Umbrella: 500 g ai/ha, visual rating after 12 to 14 days
[2] = 62 g ai/ha, preemergence, scale 0 to 100
[3] = 250 g ai/ha, scale 0-100, preemergence
[4] = 500 g ai/ha, scale 0 to 100 (0 no effect, 100 complete control), visual, 12 to 14 days, preemergence
[5] = 62 g ai/ha, scale 0 to 100 (0 no effect, 100 complete control)
[6] = 125 g ai/ha, scale 0 to 100 (0 no effect, 100 complete control)
[7] = 250 g ai/ha, scale of 0 to 100, 0 is no effect, 100 is complete control
[8] = scale 0 to 100 (0 no effect, 100 complete control)
[9] = 125 g ai/ha, scale 0 (no effect) to 100 (complete control), visual, 12 to 14 days, preemergence
[10] = Postemergence, 500 g ai/ha, scale 0 to 100
[11] = Postemergence, 250 g ai/ha, scale 0 to 100, 0 no effect, 100 complete control
[12] = postemergence, 125 g ai/ha, scale 0 to 100
[13] = postemergence, 62 g ai/ha, scale 0 to 100

CCn1nc(C(C)(C)C)cc1C(=S)Nc1cc(C(=S)N(C)C)ccc1F [Compound 305]
Plant response rating, Surinam Grass (Surinam grass; [2]): 50 | Plant response rating, Surinam Grass (Surinam grass; [3]): 60 | Plant response rating, Surinam Grass (Surinam grass; [4]): 60 | Barnyardgrass plant response rating (barnyardgrass; [5]): 70 | Barnyardgrass plant response rating (barnyardgrass; [6]): 85 | Barnyardgrass plant response rating (barnyardgrass; [7]): 95 | Plant response rating, Barnyardgrass (barnyardgrass; [8]): 100 | Plant response rating, Cupgrass, Woolly (woolly cupgrass; [2]): 20 | Plant response rating, Cupgrass, Woolly (woolly cupgrass; [9]): 60 | Plant response rating, Cupgrass, Woolly (woolly cupgrass; [3]): 60 | Plant response rating, Cupgrass, Woolly (woolly cupgrass; [4]): 70 | Plant response rating, Goosegrass (goosegrass; [2]): 80 | Plant response rating, Goosegrass (goosegrass; [9]): 85 | Plant response rating, Goosegrass (goosegrass; [3]): 95 | Plant response rating, Goosegrass (goosegrass; [4]): 95 | Plant response rating, Nutsedge, Yellow (yellow nutsedge; [2]): 10 | Plant response rating, Nutsedge, Yellow (yellow nutsedge; [9]): 20 | Plant response rating, Nutsedge, Yellow (yellow nutsedge; [3]): 25 | Plant response rating, Nutsedge, Yellow (yellow nutsedge; [4]): 50 | Plant response rating, Morningglory (morningglory; [2]): 0 | Plant response rating, Morningglory (morningglory; [9]): 0 | Plant response rating, Morningglory (morningglory; [3]): 5 | Plant response rating, Morningglory (morningglory; [4]): 10 | Plant response rating, Lambsquarters (lambsquarters; [2]): 100 | Plant response rating, Lambsquarters (lambsquarters; [9]): 100 | Plant response rating, Lambsquarters (lambsquarters; [3]): 100 | Plant response rating, Lambsquarters (lambsquarters; [4]): 100 | Plant response rating, Kochia (kochia; [2]): 100 | Plant response rating, Kochia (kochia; [9]): 100 | Plant response rating, Kochia (kochia; [3]): 100 | Plant response rating, Kochia (kochia; [4]): 100 | Plant response rating, Soybean (soybean; [2]): 0 | Plant response rating, Soybean (soybean; [3]): 90 | Plant response rating, Soybean (soybean; [4]): 100 | Plant response rating, Pigweed (pigweed; [2]): 100 | Plant response rating, Pigweed (pigweed; [9]): 100 | Plant response rating, Pigweed (pigweed; [3]): 100 | Plant response rating, Pigweed (pigweed; [4]): 100 | Plant response rating, Corn (corn; [2]): 0 | Plant response rating, Corn (corn; [9]): 40 | Plant response rating, Corn (corn; [3]): 45 | Plant response rating, Corn (corn; [4]): 45 | Sedge, Umbrella plant response rating ([1]; 62 g ai/ha, scale 0 to 100): 85 | Sedge, Umbrella plant response rating [1, 6]: 90 | Sedge, Umbrella plant response rating [1, 7]: 90 | Plant response rating, Sedge, Umbrella [1, 8]: 90

CCNC(=O)c1cccc(NC(=O)c2cc(C3(C)CC3)nn2CC)c1 [Compound 306]
Plant response rating, Surinam Grass (Surinam grass; [3]): 40 | Plant response rating, Surinam Grass (Surinam grass; [4]): 95 | Barnyardgrass plant response rating (barnyardgrass; [5]): 0 | Barnyardgrass plant response rating (barnyardgrass; [6]): 45 | Barnyardgrass plant response rating (barnyardgrass; [7]): 55 | Plant response rating, Barnyardgrass (barnyardgrass; [8]): 70 | Plant response rating, Cupgrass, Woolly (woolly cupgrass; [2]): 5 | Plant response rating, Cupgrass, Woolly (woolly cupgrass; [9]): 15 | Plant response rating, Cupgrass, Woolly (woolly cupgrass; [3]): 30 | Plant response rating, Cupgrass, Woolly (woolly cupgrass; [4]): 50 | Plant response rating, Goosegrass (goosegrass; [2]): 50 | Plant response rating, Goosegrass (goosegrass; [9]): 70 | Plant response rating, Goosegrass (goosegrass; [3]): 100 | Plant response rating, Goosegrass (goosegrass; [4]): 100 | Plant response rating, Nutsedge, Yellow (yellow nutsedge; [2]): 0 | Plant response rating, Nutsedge, Yellow (yellow nutsedge; [9]): 0 | Plant response rating, Nutsedge, Yellow (yellow nutsedge; [3]): 10 | Plant response rating, Nutsedge, Yellow (yellow nutsedge; [4]): 40 | Plant response rating, Morningglory (morningglory; [2]): 5 | Plant response rating, Morningglory (morningglory; [9]): 5 | Plant response rating, Morningglory (morningglory; [3]): 10 | Plant response rating, Morningglory (morningglory; [4]): 20 | Plant response rating, Lambsquarters (lambsquarters; [2]): 100 | Plant response rating, Lambsquarters (lambsquarters; [9]): 100 | Plant response rating, Lambsquarters (lambsquarters; [3]): 100 | Plant response rating, Lambsquarters (lambsquarters; [4]): 100 | Plant response rating, Kochia (kochia; [2]): 0 | Plant response rating, Kochia (kochia; [9]): 80 | Plant response rating, Kochia (kochia; [3]): 100 | Plant response rating, Kochia (kochia; [4]): 100 | Plant response rating, Soybean (soybean; [2]): 5 | Plant response rating, Soybean (soybean; [3]): 15 | Plant response rating, Soybean (soybean; [4]): 40 | Plant response rating, Pigweed (pigweed; [2]): 100 | Plant response rating, Pigweed (pigweed; [9]): 100 | Plant response rating, Pigweed (pigweed; [3]): 100 | Plant response rating, Pigweed (pigweed; [4]): 100 | Plant response rating, Corn (corn; [2]): 5 | Plant response rating, Corn (corn; [9]): 10 | Plant response rating, Corn (corn; [3]): 20 | Plant response rating, Corn (corn; [4]): 50 | Sedge, Umbrella plant response rating ([1]; 62 g ai/ha, scale 0 to 100): 85 | Sedge, Umbrella plant response rating [1, 6]: 90 | Sedge, Umbrella plant response rating [1, 7]: 90 | Plant response rating, Sedge, Umbrella [1, 8]: 90

CCn1nc(C(C)(C)C)cc1C(=O)Nc1cccc(OC(F)F)c1 [Compound 332]
Plant response rating, Surinam Grass (Surinam grass; [2]): 5 | Plant response rating, Surinam Grass (Surinam grass; [3]): 10 | Plant response rating, Surinam Grass (Surinam grass; [4]): 15 | Surinam Grass plant response rating (Surinam grass; [10]): 30 | Plant response rating, Surinam Grass (Surinam grass; [11]): 10 | Plant response rating, Surinam Grass (Surinam grass; [12]): 5 | Plant response rating, Surinam Grass (Surinam grass; [13]): 5 | Barnyardgrass plant response rating (barnyardgrass; [5]): 5 | Barnyardgrass plant response rating (barnyardgrass; [6]): 25 | Barnyardgrass plant response rating (barnyardgrass; [7]): 50 | Plant response rating, Barnyardgrass (barnyardgrass; [8]): 60 | Plant response rating, Cupgrass, Woolly (woolly cupgrass; [2]): 0 | Plant response rating, Cupgrass, Woolly (woolly cupgrass; [9]): 0 | Plant response rating, Cupgrass, Woolly (woolly cupgrass; [3]): 5 | Plant response rating, Cupgrass, Woolly (woolly cupgrass; [4]): 10 | Cupgrass, Woolly plant response rating (woolly cupgrass; [10]): 10 | Plant response rating, Cupgrass, Woolly (woolly cupgrass; [11]): 10 | Plant response rating, Cupgrass, Woolly (woolly cupgrass; [12]): 5 | Plant response rating, Cupgrass, Woolly (woolly cupgrass; [13]): 5 | Plant response rating, Goosegrass (goosegrass; [2]): 80 | Plant response rating, Goosegrass (goosegrass; [9]): 85 | Plant response rating, Goosegrass (goosegrass; [3]): 100 | Plant response rating, Goosegrass (goosegrass; [4]): 100 | Goosegrass plant response rating (goosegrass; [10]): 60 | Plant response rating, Goosegrass (goosegrass; [11]): 15 | Plant response rating, Goosegrass (goosegrass; [12]): 15 | Plant response rating, Goosegrass (goosegrass; [13]): 10 | Plant response rating, Nutsedge, Yellow (yellow nutsedge; [2]): 0 | Plant response rating, Nutsedge, Yellow (yellow nutsedge; [9]): 0 | Plant response rating, Nutsedge, Yellow (yellow nutsedge; [3]): 0 | Plant response rating, Nutsedge, Yellow (yellow nutsedge; [4]): 0 | Nutsedge, Yellow plant response rating (yellow nutsedge; [10]): 0 | Plant response rating, Nutsedge, Yellow (yellow nutsedge; [11]): 0 | Plant response rating, Nutsedge, Yellow (yellow nutsedge; [12]): 0 | Plant response rating, Nutsedge, Yellow (yellow nutsedge; [13]): 0 | Plant response rating, Morningglory (morningglory; [2]): 0 | Plant response rating, Morningglory (morningglory; [9]): 0 | Plant response rating, Morningglory (morningglory; [3]): 0 | Plant response rating, Morningglory (morningglory; [4]): 0 | Plant response rating, Morningglory (morningglory; [11]): 80 | Plant response rating, Morningglory (morningglory; [12]): 10 | Plant response rating, Morningglory (morningglory; [13]): 5 | Plant response rating, Lambsquarters (lambsquarters; [2]): 100 | Plant response rating, Lambsquarters (lambsquarters; [9]): 100 | Plant response rating, Lambsquarters (lambsquarters; [3]): 100 | Plant response rating, Lambsquarters (lambsquarters; [4]): 100 | Lambsquarters plant response rating (lambsquarters; [10]): 100 | Plant response rating, Lambsquarters (lambsquarters; [11]): 100 | Plant response rating, Lambsquarters (lambsquarters; [12]): 65 | Plant response rating, Lambsquarters (lambsquarters; [13]): 50 | Plant response rating, Kochia (kochia; [2]): 100 | Plant response rating, Kochia (kochia; [9]): 100 | Plant response rating, Kochia (kochia; [3]): 100 | Plant response rating, Kochia (kochia; [4]): 100 | Kochia plant response rating (kochia; [10]): 100 | Plant response rating, Kochia (kochia; [11]): 95 | Plant response rating, Kochia (kochia; [12]): 90 | Plant response rating, Kochia (kochia; [13]): 80 | Plant response rating, Soybean (soybean; [2]): 0 | Plant response rating, Soybean (soybean; [3]): 0 | Plant response rating, Soybean (soybean; [4]): 10 | Soybean plant response rating (soybean; [10]): 90 | Plant response rating, Soybean (soybean; [11]): 60 | Plant response rating, Soybean (soybean; [12]): 50 | Plant response rating, Soybean (soybean; [13]): 45 | Plant response rating, Pigweed (pigweed; [2]): 100 | Plant response rating, Pigweed (pigweed; [9]): 100 | Plant response rating, Pigweed (pigweed; [3]): 100 | Plant response rating, Pigweed (pigweed; [4]): 100 | Pigweed plant response rating (pigweed; [10]): 95 | Plant response rating, Pigweed (pigweed; [11]): 95 | Plant response rating, Pigweed (pigweed; [12]): 90 | Plant response rating, Pigweed (pigweed; [13]): 85 | Plant response rating, Corn (corn; [2]): 0 | Plant response rating, Corn (corn; [9]): 0 | Plant response rating, Corn (corn; [3]): 0 | Plant response rating, Corn (corn; [4]): 5 | Corn plant response rating (corn; [10]): 5 | Plant response rating, Corn (corn; [11]): 5 | Plant response rating, Corn (corn; [12]): 0 | Plant response rating, Corn (corn; [13]): 0 | Sedge, Umbrella plant response rating ([1]; 62 g ai/ha, scale 0 to 100): 65 | Sedge, Umbrella plant response rating [1, 6]: 80 | Sedge, Umbrella plant response rating [1, 7]: 85 | Plant response rating, Sedge, Umbrella [1, 8]: 85
